From US8530493B2, “Indolopyridines as Eg5 kinesin modulators” (4SC AG, priority 2006, dated 2013)

Test system: RKO p21 uninduced (proliferating) colon adenocarcinoma cells
Assay: Alamar Blue cell viability assay, RKO p21 uninduced (proliferating)
Assay type: cell-based
Settings: Homo sapiens, Table B3, anti-proliferative/cytotoxic activity, 72 hours, read-out: −log EC50 RKO p21 uninduced (proliferating) (converted)
Description: The anti-proliferative/cytotoxic activity of the compounds described herein can be tested on subclones of RKO human colon adenocarcinoma cells (Schmidt et al., Oncogene 19, 2423-2429; 2000) using the Alamar Blue cell viability assay (described in O'Brien et al. Eur J Biochem 267, 5421-5426, 2000). The compounds are dissolved as 10 mM solutions in DMSO and subsequently diluted in semi-logarithmic steps. DMSO dilutions are further diluted 1:100 into Dulbecco's modified Eagle's medium (DMEM) containing 10% fetal calf serum to a final concentration twice as much as the final concentration in the test. RKO subclones are seeded into 96 well flat bottom plates at a density of 4000 cells per well in a volume of 50 μl per well. 24 hours after seeding the 50 μl each of the compound dilutions in DMEM medium are added into each well of the 96 well plate. Each compound dilution is tested as triplicates. Wells containing untreated control cells are filled with 50 μl DMEM medium containing 1% DMSO. The cells are then incubated with the substances for 72 hours at 37° C. in a humidified atmosphere containing 5% carbon dioxide. To determine the viability of the cells, 10 μl of an Alamar Blue solution (Biosource) are added and the fluorescence is measured at an extinction of 544 nm and an emission of 590 nm. For the calculation of the cell viability the emission value from untreated cells is set as 100% viability and the emission rates of treated cells are set in relation to the values of untreated cells. Viabilities are expressed as % values. The Graphpad Prism program is used for the calculation of EC50 values for anti-proliferative/cytotoxic activity out of the obtained dose-response curves.
To determine the cell cycle specific mode of action, subclones of RKO colon adenocarcinoma cells (RKOp21 or RKOp27 as described by Schmidt et al. in Oncogene 19, 2423-2429; 2000) are seeded into 96 well flat bottom plates at a density of 16000 cells per well in a volume of 50 μl per well in DMEM growth medium with 10% FCS containing 10 μM Ponasterone A. 24 hours after seeding the 50 μl each of the compound dilutions in DMEM medium are added into each well of the 96-well plate. Each compound dilution is tested as triplicates. Wells containing untreated control cells are filled with 50 μl DMEM medium containing 1% DMSO. The cells are then incubated with the substances for 72 hours at 37° C. in a humidified atmosphere containing 5% carbon dioxide. To determine the viability of the cells, 10 μl of an Alamar Blue solution (Biosource) are added and the fluorescence is measured at an extinction of 544 nm and an emission of 590 nm. For the calculation of the cell viability the emission value from untreated cells is set as 100% viability and the emission rates of treated cells are set in relation to the values of untreated cells. Viabilities are expressed as % values. The Graphpad Prism program (GraphPad Software, Inc) is used for the calculation of EC50 values out of the obtained dose-response curves. Viability is compared of proliferating cells grown in the absence of the inducer Ponasterone A, versus viability of cells arrested by the expression of ectopic p27Kip1 induced by Ponasterone A.
Representative values for anti-proliferation/cytotoxicity [measured as −log EC50 (mol/l)] determined in the aforementioned assays follow from the following tables B1, B2 and B3, in which the numbers of the compounds correspond to the numbers of the examples.

Structure (SMILES) | EC50
C[C@@]12Cc3c([nH]c4ccc(OC(F)F)cc34)[C@@H](c3cccc(O)c3)N1C(=O)N(CCNC1CCC1)C2=O (racemic) [Example 272, (3aSR,10RS)-2-(2-Cyclobutylamino-ethyl)-6-(1,1-difluoro-methoxy)-10-(3-hydroxy-phenyl)-3a-methyl-3a,4,9,10-tetrahydro-2,9,10a-triaza-cyclopenta[b]fluorene-1,3-dione] | ≤ 39.8 nM
C[C@@]12Cc3c([nH]c4cc(F)c(Cl)cc34)[C@@H](c3cccc(O)c3)N1C(=O)N(CCCN1CCCC1)C2=O (racemic) [Example 476, (3aSR,10RS)-6-Chloro-7-fluoro-10-(3-hydroxy-phenyl)-3a-methyl-2-(3-pyrrolidin-1-yl-propyl)-3a,4,9,10-tetrahydro-2,9,10a-triaza-cyclopenta[b]fluorene-1,3-dione] | ≤ 39.8 nM
CC(C)N(C)CCCN1C(=O)N2[C@H](c3cccc(O)c3)c3[nH]c4ccc(Br)cc4c3C[C@@]2(C)C1=O (racemic) [Example 218, (3aSR,10RS)-6-Bromo-10-(3-hydroxy-phenyl)-2-[3-(isopropyl-methyl-amino)-propyl]-3a-methyl-3a,4,9,10-tetrahydro-2,9,10a-triaza-cyclopenta[b]fluorene-1,3-dione] | ≤ 39.8 nM
CCN(CCCN1C(=O)N2[C@H](c3cccc(O)c3)c3[nH]c4ccc(OC)cc4c3C[C@@]2(C)C1=O)CCOC [Example 544, (3aS,10R)-2-{3-[Ethyl-(2-methoxy-ethyl)-amino]-propyl}-10-(3-hydroxy-phenyl)-6-methoxy-3a-methyl-3a,4,9,10-tetrahydro-2,9,10a-triaza-cyclopenta[b]fluorene-1,3-dione] | ≤ 39.8 nM
COc1cc2c3c([nH]c2cc1F)[C@@H](c1cccc(O)c1)N1C(=O)N(CCN(C)C(C)C)C(=O)[C@]1(C)C3 (racemic) [Example 259, (3aSR,10RS)-7-Fluoro-10-(3-hydroyx-phenyl)-2-[2-(isopropyl-methyl-amino)-ethyl]-6-methoxy-3a-methyl-3a,4,9,10-tetrahydro-2,9,10a-triaza-cyclopenta[b]fluorene-1,3-dione] | 39.8 to 251 nM
COCCNCCCN1C(=O)N2[C@H](c3cccc(O)c3)c3[nH]c4cc(F)c(OC)cc4c3C[C@@]2(C)C1=O (racemic) [Example 306, (3aSR,10RS)-7-Fluoro-10-(3-hydroxy-phenyl)-6-methoxy-2-[3-(2-methoxy-ethylamino)-propyl]-3a-methyl-3a,4,9,10-tetrahydro-2,9,10a-triaza-cyclopenta[b]fluorene-1,3-dione] | 39.8 to 251 nM
CCN(C)CCCN1C(=O)N2[C@H](c3cccc(O)c3)c3[nH]c4cc(F)c(OC)cc4c3C[C@@]2(C)C1=O (racemic) [Example 311, (3aSR,10RS)-2-[3-(Ethyl-methyl-amino)-propyl]-7-fluoro-10-(3-hydroxy-phenyl)-6-methoxy-3a-methyl-3a,4,9,10-tetrahydro-2,9,10a-triaza-cyclopenta[b]fluorene-1,3-dione] | 39.8 to 251 nM
CN1CCN(CCN2C(=O)N3[C@H](c4cccc(O)c4)c4[nH]c5ccc(Br)cc5c4C[C@@]3(C)C2=O)CC1 (racemic) [Example 386, (3aSR,10RS)-6-Bromo-10-(3-hydroxy-phenyl)-3a-methyl-2-[2-(4-methyl-piperazin-1-yl)-ethyl]-3a,4,9,10-tetrahydro-2,9,10a-triaza-cyclopenta[b]fluorene-1,3-dione] | ≤ 39.8 nM
CCNCCN1C(=O)N2[C@H](c3cccc(O)c3)c3[nH]c4ccc(OCC)cc4c3C[C@@]2(C)C1=O (racemic) [Example 296, (3aSR,10RS)-6-Ethoxy-2-(2-ethylamino-ethyl)-10-(3-hydroxy-phenyl)-3a-methyl-3a,4,9,10-tetrahydro-2,9,10a-triaza-cyclopenta[b]fluorene-1,3-dione] | ≤ 39.8 nM
C[C@@]12Cc3c([nH]c4ccc(Br)cc34)[C@@H](c3cccc(O)c3)N1C(=O)N(CCCNC1CC1)C2=O (racemic) [Example 215, (3aSR,10RS)-6-Bromo-2-(3-cyclopropylamino-propyl)-10-(3-hydroxy-phenyl)-3a-methyl-3a,4,9,10-tetrahydro-2,9,10a-triaza-cyclopenta[b]fluorene-1,3-dione] | ≤ 39.8 nM
COc1ccc2[nH]c3c(c2c1F)C[C@@]1(C)C(=O)N(CCNC2CCC2)C(=O)N1[C@@H]3c1cccc(O)c1 (racemic) [Example 413, (3aSR,10RS)-2-(2-Cyclobutylamino-ethyl)-5-fluoro-10-(3-hydroxy-phenyl)-6-methoxy-3a-methyl-3a,4,9,10-tetrahydro-2,9,10a-triaza-cyclopenta[b]fluorene-1,3-dione] | 39.8 to 251 nM
COc1ccc2[nH]c3c(c2c1)C[C@@]1(C)C(=O)N(CCCNCC(C)C)C(=O)N1[C@@H]3c1cccc(O)c1 [Example 534, (3aS,10R)-10-(3-Hydroxy-phenyl)-2-(3-isobutylamino-propyl)-6-methoxy-3a-methyl-3a,4,9,10-tetrahydro-2,9,10a-triaza-cyclopenta[b]fluorene-1,3-dione] | ≤ 39.8 nM
CCN(CCCN1C(=O)N2[C@H](c3cccc(O)c3)c3[nH]c4ccc(OC(F)F)cc4c3C[C@@]2(C)C1=O)CCOC (racemic) [Example 178, (3aSR,10RS)-6-(1,1-Difluoro-methoxy)-2-{3-[ethyl-(2-methoxy-ethyl)-amino]-propyl}-10-(3-hydroxy-phenyl)-3a-methyl-3a,4,9,10-tetrahydro-2,9,10a-triaza-cyclopenta[b]fluorene-1,3-dione] | ≤ 39.8 nM
COc1ccc2[nH]c3c(c2c1F)C[C@@]1(C)C(=O)N(CCNC(C)C)C(=O)N1[C@@H]3c1cccc(O)c1 (racemic) [Example 408, (3aSR,10RS)-5-Fluoro-10-(3-hydroxy-phenyl)-2-{2-isopropylamino-ethyl)-6-methoxy-3a-methyl-3a,4,9,10-tetrahydro-2,9,10a-triaza-cyclopenta[b]fluorene-1,3-dione] | 39.8 to 251 nM
CC(C)(C)NCCN1C(=O)N2[C@H](c3cccc(O)c3)c3[nH]c4ccc(Br)cc4c3C[C@@]2(C)C1=O (racemic) [Example 378, (3aSR,10RS)-6-Bromo-2-(2-tert-butylamino-ethyl)-10-(3-hydroxy-phenyl)-3a-methyl-3a,4,9,10-tetrahydro-2,9,10a-triaza-cyclopenta[b]fluorene-1,3-dione] | ≤ 39.8 nM
CCN(CCCN1C(=O)N2[C@H](c3cccc(O)c3)c3[nH]c4cc(F)c(OC)cc4c3C[C@@]2(C)C1=O)CCOC (racemic) [Example 316, (3aSR,10RS)-2-{3-[Ethyl-(2-methoxy-ethyl)-amino]-propyl}-7-fluoro-10-(3-hydroxy-phenyl)-6-methoxy-3a-methyl-3a,4,9,10-tetrahydro-2,9,10a-triaza-cyclopenta[b]fluorene-1,3-dione] | 39.8 to 251 nM
COc1cc2c3c([nH]c2cc1F)[C@@H](c1cccc(O)c1)N1C(=O)N(CCNCCO)C(=O)[C@]1(C)C3 [Example 245, (3aS,10R)-7-Fluoro-2-[2-(2-hydroxy-ethylamino)-ethyl]-10-(3-hydroxy-phenyl)-6-methoxy-3a-methyl-3a,4,9,10-tetrahydro-2,9,10a-triaza-cyclopenta[b]fluorene-1,3-dione] | 39.8 to 251 nM
CN(CCO)CCN1C(=O)N2[C@H](c3cccc(O)c3)c3[nH]c4ccc(Br)cc4c3C[C@@]2(C)C1=O (racemic) [Example 384, (3aSR,10RS)-6-Bromo-2-{2-[(2-hydroxy-ethyl)-methyl-amino]-ethyl}-10-(3-hydroxy-phenyl)-3a-methyl-3a,4,9,10-tetrahydro-2,9,10a-triaza-cyclopenta[b]fluorene-1,3-dione] | ≤ 39.8 nM
